Data reported in US4276430A, “Analgesic and anti-inflammatory compounds and compositions containing same” (The Procter & Gamble Company, priority 1979, dated 1981).
One block for each compound: values may come before it.

Legend:
[1] = guinea pig ultraviolet light induced erythema test; format: in vivo, guinea pig (Hartley strain albino); conditions: Cavia porcellus; topical; cumulative blanching grades over a 1-4 hour period after application; vehicle propylene glycol/ethanol; read-out: IC50 (concentration which inhibits UV-induced erythema by 50%)
Protocol: The compositions of this invention are evaluated for their anti-inflammation properties using a guinea pig ultraviolet light induced erythema test.
Hartley strain albino guinea pigs weighing between 400 and 500 grams are clipped on the dorsal area and then depilated using a cream hair remover. 15 minutes after the application of the hair remover, the area is thoroughly washed using warm tap water and then dried with a towel. […] Ten minutes irradiation constitutes a minimal erythema dose. An adhesive tape strip is attached to the center of the guinea pig's back to retain an unirradiated portion of skin. About 1 hour after irradiation time, 3 preparations are applied on each side using a micropipette. The treated areas are about 1×4 cm in size and are aligned vertically from near the center back down the side. The degree of blanching is determined at hourly intervals.
Compositions as below are formulated and tested.
*Dihydroxybenzoic acid derivative
Comparisons of the anti-inflammatory activity of the dihydroxybenzoic acid derivatives are made by calculating their IC50 values.

[2] = UV-induced pain test in humans: analgesic activity (radiant heat pain stimulus); format: in vivo, human; conditions: for Recovery of Treated Skin: 1% (w/w) in propylene glycol/ethanol
Source text: The UV-induced erythema and/or pain model consists of creating a burn with ultraviolet light (UV) and treating the resultant erythemal reaction with topical applications of the new drug formulations. At various time intervals, the degree of erythema and the pain tolerance response to radiant heat are monitored.
Experiments have been designed to determine the effectiveness of benzyl 2,5-diacetoxybenzoate according to several parameters: treatment times, concentration of drug, repeated applications,duration of response, and vehicles.
A total of 56 subjects were actually used in the UV-induced erythema and pain tests.
The compositions of the test formulations employed in these studies were as follows: […]
(E) 0.01-0.5% (w/w) benzyl 2,5-diacetoxybenzoate in ethanol/propylene glycol/water (50/10/40, w/w/w);
(G)* 0.025 to 2.5% (w/w) benzyl 2,5-diacetoxybenzoate in a cream vehicle;
Induction of Erythema: Subjects were irradiated on a 2.5×20 cm area on their backs, using a bank of three 20S Westinghouse fluorescent lamps at a distance of 15 cm. Each subject received 2 to 4 MEDs of light (minimum erythemal dose) for these experiments.
Treatment with Formulations: The UV-irradiated area was divided into 4 treatment sites. When liquid formulations were tested, up to 40 microliter were topically applied to each treatment site using an Eppendorf micropipet. When cream formulations were tested, no more than 100 microliter were topically applied to each treatment site using a 1 cc tuberculin syringe with no needle; the cream was rubbed into the skin with a gloved finger.
Each site was treated no more than 4 times, and all treatments occurred within the 24-hour interval following UV-irradiation.
A randomixed treatment sequence was used.
2. Analgesic At suitable time
Elapsed time, in seconds,
Activity intervals within
to respond to a radiant
treated and untreated skin.
Skin irradiated with 3-4 MEDs (minimal erythemal doses) of UV-B light (normal sunburn range) becomes hyperalgesic to radiant heat in about four hours.
The experimental design was regarded as randomized blocks, in which the subject is the "block". The variation between subjects with respect to erythema or analgesic response was accounted for as a source of variation in the Analysis of Variance (ANOVA).

[3] = UV-induced erythema test in humans: anti-erythemic activity (blanching); format: in vivo, human; conditions: for blanching response: first 3-4 hours after a single application
[4] = suppression of inflammation associated with arthritis (Mycobacterium butyricum, hind paw volume); format: in vivo, rat (Male Sprague-Dawley); conditions: topical 20 mg/kg/day, five weeks
Protocol: This example illustrates the efficacy of the dihydroxybenzoic acid derivatives described herein for suppressing the inflammation associated with arthritis.
Male Sprague-Dawley rats, weighing between 180-200 grams, are injected subcutaneously in the distal third of the tail with a suspension of 0.8 mg of heat-killed Mycobacterium butyricum in 0.1 ml of mineral oil. This injection introduces arthritis into the rat as evidenced by pedal edema (swelling). Measurement of the alleviation of the inflammation associated with the arthritis is made by determining the volume of the hind paws initially, two weeks later, and each subsequent week thereafter. The paw volume measurements are obtained by immersing each rat's hind paw up to a predetermined mark in a mercury bath connected to a Statham pressure transducer. The increase in pressure within the bath is proportional to the volume of the paw introduced.
A solution of benzyl 2,5-diacetoxybenzoate is made. The solution comprises a 1:1 mixture of propylene glycol and ethanol and 2% benzyl 2,5-diacetoxybenzoate. In one group, each rat is treated topically with 20 mg/kg/day of the benzyl 2,5-diacetoxybenzoate solution. The changes in paw volume after each treatment are compared to the control rats.

[5] = cited from earlier work
[6] = administered orally; aspirin-based products; cited from earlier work
[7] = vehicle propylene glycol/ethanol (50/50, w/w)

IC50 [1]: 2300 µM
SMILES: COC(=O)c1cc(OC(C)=O)ccc1OC(C)=O [CH3]

SMILES: CCCCOC(=O)c1cc(OC(C)=O)ccc1OC(C)=O [C4 H9, n-Butyl 2,5-diacetoxybenzoate]
IC50 [1]: 1200 µM

SMILES: CC(=O)Oc1ccc(OC(C)=O)c(C(=O)OCc2ccccc2)c1 [Benzyl 2,5-diacetoxybenzoate]
Tests with Analgesic Responses ([2]; 0.01% in Propylene Glycol/Ethanol (50/50, w/w)): 1/6
dose dependence of the analgesic response ([2]; 0.01-1.0% in Propylene Glycol/Ethanol (50/50, w/w)): dose-dependent
Tests with Analgesic Responses ([2]; 0.1% in Propylene Glycol/Ethanol (50/50, w/w)): 2/6
analgesic activity, three applications compared with 2 or 1 ([2]; 0.25%): more effective than 2 or 1 applications
analgesic activity, repeated application compared with single application ([2]; 1%): failed to increase the level of analgesic activity effected by a single application
time of maximum analgesic activity ([2]; 1% (w/w) in propylene glycol/ethanol (50/50, w/w), treatment 2 to 6 hours after UV-irradiation, following treatment): 2 to 4 h
duration of some analgesic effects ([2]; 1% (w/w) in propylene glycol/ethanol (50/50, w/w), after treatment(s)): up to 10 hours
Tests with Analgesic Responses ([2]; 1.0% in Propylene Glycol/Ethanol (50/50, w/w)): 9/12
Recovery of Treated Skin ([2]; 2-4 hours after treatment, 22 subjects, SE 0.5, normal minus non-treated skin 4.0): 2.4 s
Recovery of Treated Skin ([2]; 5-7 hours after treatment, 16 subjects, SE 0.4): 1.6 s
Recovery of Treated Skin ([2]; 8-10 hours after treatment, 6 subjects, SE 0.7): 1.4 s
delivery of an efficacious dose into the skin, compared with propylene glycol/ethanol ([2]; Ethanol/water (80/20), ethanol/propylene glycol/water (50/10/40), and a cream): somewhat less effective than propylene glycol/ethanol
topical analgesic activity ([2]; conclusion, rather severe and acute pain): does have topical analgesic activity for rather severe and acute pain
return to normal pain tolerance ([2]; in 8 out of the 12 tests, at least one concentration at one time point): ≥ 80%
analgesic action in non-irradiated skin ([2]; non-irradiated skin): No evidence of analgesic action was found
analgesic response by vehicle ([2]; propylene glycol/ethanol (50/50, w/w) vehicle, compared with 4 vehicle systems): strongest analgesic activity
analgesic activity ([2]; skin treated 2 to 6 hours following UV-irradiation): Analgesic activity was demonstrated
tests in which at least one concentration at one time point effected at least an 80% return to normal pain tolerance [2, 7]: 8 out of the 12
tests with statistically significant analgesia [2, 7]: 9 out of 12
blanching response ([3]; 0.01%): distinctly weaker
blanching response ([3]; 0.03-2.5%): very similar responses
blanching response, multiple application compared with single application ([3]; 1 to 2.5%, 1 to 4 times within 24 hours): did not produce an effect greater than obtained with a single application
half-life of the response (time for the maximum response to diminish 50%) ([3]; after drug treatment): about 9 hours
time of maximum blanching response ([3]; after drug treatment): 2 to 3 h
effect of treatment time on blanching response ([3]; application from a few minutes to 24 hours following UV-irradiation): the earlier a given treatment was made after UV-irradiation, the greater the blanching response
vehicle effectiveness, peak blanching response: rank 1 (decreasing order) ([3]; at a given concentration): propylene glycol/ethanol (50/50, w/w)
vehicle effectiveness, peak blanching response: rank 2 (decreasing order) ([3]; at a given concentration): ethanol/propylene glycol/water (50/10/40, w/w/w)=cream
vehicle effectiveness, peak blanching response: rank 3 (decreasing order) ([3]; at a given concentration): ethanol/water (80/20, w/w)
anti-erythemic activity ([3]; conclusion): has anti-erythemic activity
duration of some degree of blanching ([3]; higher concentrations, after treatment, dose-related): 5 to 11 h
blanching response, repeated application ([3]; low concentrations, e.g., 0.03%, 1 to 4 times within 24 hours): high blanching response
antierythemic activity by vehicle ([3]; propylene glycol/ethanol (50/50, w/w) vehicle): highest antierythemic activity
reduction in pedal edema compared to non-treated control group ([4]; 2% solution in 1:1 propylene glycol and ethanol): significant improvement compared to the non-treated control group
reduction in pedal edema compared with aspirin 200 mg/kg/day oral [4]: comparable
IC50 [1]: 400 µM

SMILES: CCCCCCOC(=O)c1cc(OC(C)=O)ccc1OC(C)=O [C6 H13, Hexyl 2,5-diacetoxybenzoate]
IC50 [1]: 340 µM

IC50 [1]: 1800 µM
SMILES: CCOC(=O)c1cc(OC(C)=O)ccc1OC(C)=O [C2 H5]

IC50 [1]: 1200 µM
SMILES: CC(=O)Oc1ccc(OC(C)=O)c(C(=O)OC(C)c2ccccc2)c1 (stereo not shown) [CH(C6 H5)CH3]

SMILES: CCCCC(CC)COC(=O)c1cc(OC(C)=O)ccc1OC(C)=O (stereo not shown) [C2 H3 (C2 H5)C4 H9, 2'-ethylhexyl 2,5-diacetoxybenzoate]
IC50 [1]: 5800 µM

SMILES: CCCCCCCCCCCCOC(=O)c1cc(OC(C)=O)ccc1OC(C)=O [C12 H25, Dodecyl 2,5-diacetoxybenzoate]
IC50 [1]: 1200 µM

SMILES: CC(=O)Oc1ccccc1C(=O)O [aspirin]
skin irritation on repeated topical application ([5]; repeated topical application of a high level): primary irritation and peeling of the superificial layers (the stratum corneum) of the skin
concentration needed for topical analgesic effect ([5]; topical): a relatively high concentration of aspirin must be topically applied before its effect as a topical analgesic is noted
effect on inflammation in humans when applied topically ([5]; topical): can delay and decrease inflammation in humans when applied topically
gastric irritation and frank stomach bleeding, patients affected [6]: up to 70%

SMILES: CCCOC(=O)c1cc(OC(C)=O)ccc1OC(C)=O [C3 H7, Propyl 2,5-diacetoxybenzoate]
IC50 [1]: 1100 µM

SMILES: CCCCCCCCCCOC(=O)c1cc(OC(C)=O)ccc1OC(C)=O [C10 H21, Decyl 2,5-diacetoxybenzoate]
IC50 [1]: 650 µM

IC50 [1]: 340 µM
SMILES: CCCCCCCCOC(=O)c1cc(OC(C)=O)ccc1OC(C)=O [C8 H17]
